From patent publication US6878751B1, “Administration of resveratrol to treat inflammatory respiratory disorders” (Imperial College of Science Technology and Medicine, priority 2000, dated 2005)

Tested on: iNOS mRNA
Experiment: iNOS mRNA expression by RT-PCR in cytomix-treated primary epithelial cells
Assay type: cell-based, human
Conditions: primary epithelial cells treated 4 hours with cytomix
Protocol: Human primary epithelial cells are cultured from normal donor tissue. Explant cultures of tissue obtained from normal human lung transplant donors provided human primary epithelial (HPE) cells. The HPE cells were cultured in Ham's F12 nutrient medium containing 5% (v/v) fetal calf serum (FCS), 1 μM hydrocortisone, 5 ng/ml EGF (epithelial growth factor), 10 μg/ml insulin, 10 nM retinoic acid, 0.5 μg/ml transferrin, 2 μg/ml triiodothyronine, 1.5 μg/ml NaHCO3, 100 μg/ml penicillin, 100 μg/ml streptomycin and 0.25 μg/m amphotericin B; the cells were incubated at 37° C. in a humidified atmosphere containing 95% (v/v) air, 5% (v/v) CO2. The HPE cells were cultured for the last 24 hours prior to the experimental treatments under the same conditions except that additive free Ham's F12 media was substituted for the supplemented Ham's F12 media described above.
Expression of mRNA for iNOS was evaluated by RT-PCR of RNA extracted from the cells using the Qiagen RNeasy mini kit as directed by the manufacturer (Crawley, Sussex, U.K.). RT-PCR was performed according to routine methods. […]

Compound: Oc1ccc(/C=C/c2cc(O)cc(O)c2)cc1 [Resveratrol, 3,5,4′-trihydroxystilbene]
- inhibition of iNOS expression as measured by mRNA: inhibited iNOS expression
